# Assay results: BindingDB's records for doi:10.1021/acs.jmedchem.7b00843 (Wuxi Apptec, 2017)
# Experiment: Inhibition of DLK in CD-1 mouse DRG neuron assessed as axonal protection pre-incubated for 2 hrs before NGF deprivation for 16 to 20 hrs by Campenot chamber based fluorescence assay
row,EC50 [nM],Compound
1,457,Nc1ncc(-c2cc([C@H]3[C@@H]4CN(C5COC5)C[C@@H]43)n(CC3CC3)n2)cc1C(F)(F)F
2,574,CC(C)n1nc(-c2cnc(N)c(OC(F)(F)F)c2)cc1[C@H]1[C@@H]2CN(C3COC3)C[C@@H]21
